From patent publication US11351178B2, “Selective HDAC6 inhibitors” (ITALFARMACO S.P.A., priority 2017, dated 2022)

Legend:
recombinant human HDAC6 = target: T1, recombinant human HDAC6 (Homo sapiens, UniProt Q9UBN7); test: Enzymatic screening on recombinant human HDAC6; format: biochemical; settings: Table 2; read-out: HDAC6 IC50
T1 sequence (Q9UBN7 1-1215): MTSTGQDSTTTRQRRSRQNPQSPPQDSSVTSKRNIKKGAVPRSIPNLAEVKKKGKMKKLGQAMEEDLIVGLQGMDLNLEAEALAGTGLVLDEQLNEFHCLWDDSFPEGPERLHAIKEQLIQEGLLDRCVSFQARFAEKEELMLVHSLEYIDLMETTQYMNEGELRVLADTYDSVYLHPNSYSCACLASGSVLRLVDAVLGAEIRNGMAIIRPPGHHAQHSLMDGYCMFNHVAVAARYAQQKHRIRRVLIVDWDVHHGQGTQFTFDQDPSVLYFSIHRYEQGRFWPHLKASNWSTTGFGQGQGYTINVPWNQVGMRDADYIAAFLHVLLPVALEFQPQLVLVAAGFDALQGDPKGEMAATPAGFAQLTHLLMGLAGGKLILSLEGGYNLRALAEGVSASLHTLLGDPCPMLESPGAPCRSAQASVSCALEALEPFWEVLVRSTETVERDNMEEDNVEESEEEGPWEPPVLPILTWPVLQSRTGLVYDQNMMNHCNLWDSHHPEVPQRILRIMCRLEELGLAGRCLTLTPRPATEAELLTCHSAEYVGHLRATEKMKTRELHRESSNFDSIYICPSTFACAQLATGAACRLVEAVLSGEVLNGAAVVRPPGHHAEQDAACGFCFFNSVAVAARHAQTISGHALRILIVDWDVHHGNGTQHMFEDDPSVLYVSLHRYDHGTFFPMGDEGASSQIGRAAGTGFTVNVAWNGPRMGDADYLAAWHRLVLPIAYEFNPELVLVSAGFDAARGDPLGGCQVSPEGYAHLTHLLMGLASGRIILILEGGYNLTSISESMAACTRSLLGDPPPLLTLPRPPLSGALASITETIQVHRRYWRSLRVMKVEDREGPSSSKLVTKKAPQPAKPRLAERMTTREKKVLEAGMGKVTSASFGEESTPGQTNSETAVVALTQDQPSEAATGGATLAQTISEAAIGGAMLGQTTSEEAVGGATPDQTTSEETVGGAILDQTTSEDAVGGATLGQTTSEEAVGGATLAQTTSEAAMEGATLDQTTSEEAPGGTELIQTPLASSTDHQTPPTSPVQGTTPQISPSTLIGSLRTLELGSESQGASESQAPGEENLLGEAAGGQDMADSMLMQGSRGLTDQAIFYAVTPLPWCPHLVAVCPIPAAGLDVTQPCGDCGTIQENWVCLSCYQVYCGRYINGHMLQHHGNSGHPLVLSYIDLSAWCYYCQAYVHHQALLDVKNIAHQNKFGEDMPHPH
Procedure: Enzymatic activity on recombinant human HDAC6 and HDAC3 was evaluated (Table 2) for each synthesized compound.
After a period of incubation at 30° C. (incubation times vary for different isoforms and are shown in table 1) 25 μL of solution containing the substrate were added. As substrate, FLUOR DE LYS® deacetylase substrate (Enzo Life Sciences, cat #BML-K1104, FdL), FLUOR DE LYS®-Green substrate (Enzo Life Sciences, cat #BML-K1572 FdL_G) and trifluoroacetyl-L-lysine (Tfal)-2× concentrated solution in 25 mM Tris-HCl, pH 8, 130 mM NaCl 0.05% Tween-20 10% glycerol) were used. Following a reaction period at 30° C.

[1] = Stability to Phase I metabolism in rat S9 liver fraction; format: in vitro ADME; settings: after 90 min, 37° C.
Procedure: Test compounds were incubated in rat and human liver S9 fraction at 37° C. up to 90 minutes in order to evaluate their stability to Phase I metabolism by hepatic enzymes. […] The reaction was stopped placing samples on ice bath and adding acidified acetonitrile. After centrifugation (10 minutes at 14000 rpm) an aliquot of the supernatant was diluted water, filtered with 0.45 μm regenerated cellulose syringe filters and injected in HPLC-UV or in LC-MS/MS. The percentages of the amount remaining at the various incubation times with respect to the initial amount were calculated. The intrinsic clearance was also calculated.

Stability in rat plasma = format: in vitro ADME; settings: after 4 hours, 37° C.
Procedure: In order to evaluate the stability to circulating enzymes, test compounds were incubated in human and rat plasma at 37° C. in a thermostated oscillating bath. Each test compound was incubated at μM (50 μM when the samples were analysed by UV/HPLC, 1 or 2 μM when the samples were analysed by LC-MS/MS) concentration for 0, 15, 30 min and 1, 2 and 4 hours. The reaction was stopped placing tubes on ice bath and adding acidified acetonitrile. After centrifugation for 10 minutes at 14000 rpm, an aliquot of the supernatant was diluted with water, filtered with 0.45 μm syringe filters and injected in HPLC-UV or in LC-MS/MS. The percentages of amount remaining at the various times of incubation with respect to initial amount were calculated. The half-life in plasma was also calculated.

| SMILES | IC50 (recombinant human HDAC6) [nM] | residual percentage in rat S9 fraction [1] [%] | residual percentage in rat plasma (Stability in rat plasma) [%] |
| --- | --- | --- | --- |
| O=C(NO)c1ccc(Sc2nnc(-c3c[nH]c4ccccc34)n2Cc2ccco2)cc1 [comp. 25, 4-[[4-(2-furylmethyl)-5-(1H-indol-3-yl)-1,2,4-triazol-3-yl]sulfanyl]benzenecarbohydroxamic acid;2,2,2-trifluoroacetic acid] | 47 | 9 | 77 |
| O=C(NO)c1ccc(Sc2nnc(-c3ccc(F)cc3)[nH]2)cc1 [comp. 29, 4-[[5-(4-fluorophenyl)-4H-1,2,4-triazol-3-yl]sulfanyl]benzenecarbohydroxamic acid] | 19 | 74 | 103 |
| CCn1c(Sc2ccc(C(=O)NO)cc2)nnc1-c1ccc(F)cc1 [comp. 30, 4-[[4-ethyl-5-(4-fluorophenyl)-1,2,4-triazol-3-yl]sulfanyl]benzenecarbohydroxamic acid] | 25 | 63 | 49 |
| O=C(NO)c1ccc(Cn2nnc(-c3ccc(Cl)cc3)n2)cc1 [comp. 31, 4-[[5-(4-chlorophenyl)tetrazol-2-yl]methyl]benzenecarbohydroxamic acid] | 14 | 0 | 76 |
| O=C(NO)c1ccc(Cn2nnc(Cc3ccccc3)n2)cc1 [comp. 36, 4-[(5-benzyltetrazol-2-yl)methyl]benzenecarbohydroxamic acid] | 52 | 38 | 60 |
| O=C(NO)c1ccc(Cn2nnnc2Cc2ccccc2)cc1 [comp. 37, 4-[(5-benzyltetrazol-1-yl)methyl]benzenecarbohydroxamic acid] | 212 | 82 | 6 |
| Cc1ccsc1-c1nnn(Cc2ccc(C(=O)NO)cc2)n1 [comp. 39, 4-[[5-(3-methyl-2-thienyl)tetrazol-2-yl]methyl]benzenecarbohydroxamic acid] | 3 | 0 | 63 |
| COc1ccc(Cc2nc(Cc3ccc(C(=O)NO)cc3)n(-c3ccc(C(F)(F)F)cc3)n2)cc1OC [comp. 44, 4-[[5-[(3,4-dimethoxyphenyl)methyl]-2-[4-(trifluoromethyl)phenyl]-1,2,4-triazol-3-yl]methyl]benzenecarbohydroxamic acid] | 415 | 87 | 32 |
| COc1ccc(Cc2nnc(Cc3ccc(C(=O)NO)cc3)o2)cc1OC [comp. 45, 4-[[5-[(3,4-dimethoxyphenyl)methyl]-1,3,4-oxadiazol-2-yl]methyl]benzenecarbohydroxamic acid] | 68 | 69 | 81 |
| COc1ccc(-c2nc(Cc3ccc(C(=O)NO)cc3)no2)cc1OC [comp. 49, 4-[[5-(3,4-dimethoxyphenyl)-1,2,4-oxadiazol-3-yl]methyl]benzenecarbohydroxamic acid] | 7 | 57 | 82 |
| COc1ccc(-c2nnc(Cc3ccc(C(=O)NO)cc3)o2)cc1OC [comp. 57, 4-[[5-(3,4-dimethoxyphenyl)-1,3,4-oxadiazol-2-yl]methyl]benzenecarbohydroxamic acid] | 8 | 71 | 94 |
| Cc1nc(Sc2ccc(C(=O)NO)cc2)nn1-c1ccc(Cl)cc1Cl [comp. 62, 4-[[1-(2,4-dichlorophenyl)-5-methyl-1,2,4-triazol-3-yl]sulfanyl]benzenecarbohydroxamic acid] | 127 | 55 | 83 |
| Cc1ccc(-c2cc(-c3nnc(Sc4ccc(C(=O)NO)cc4)n3C)c3ccccc3n2)cc1 [comp. 67, 4-[[4-methyl-5-[2-(p-tolyl)-4-quinolyl]-1,2,4-triazol-3-yl]sulfanyl]benzenecarbohydroxamic acid] | 70 | 44 | 101 |
| O=C(NO)c1ccc(Cc2nnc(-c3ccccc3)o2)cc1 [comp. 68, 4-[(5-phenyl-1,3,4-oxadiazol-2-yl)methyl]benzenecarbohydroxamic acid] | 4 | 34 | 77 |
| COc1ccc(-c2nnn(Cc3ccc(C(=O)NO)cc3)n2)cc1OCc1ccccc1 [comp. 70, 4-[[5-(3-benzyloxy-4-methoxy-phenyl)tetrazol-2-yl]methyl]benzenecarbohydroxamic acid] | 9 | 18 | 79 |
| COc1ccc(-c2nnnn2Cc2ccc(C(=O)NO)cc2)cc1OCc1ccccc1 [comp. 71, 4-[[5-(3-benzyloxy-4-methoxy-phenyl)tetrazol-1-yl]methyl]benzenecarbohydroxamic acid] | 52 | 58 | 4 |
| Cn1c(Sc2ccc(C(=O)NO)cc2)nnc1C1COc2ccccc2O1 (stereo not drawn) [comp. 83, 4-[[5-(2,3-dihydro-1,4-benzodioxin-3-yl)-4-methyl-1,2,4-triazol-3-yl]sulfanyl]benzenecarbohydroxamic acid] | 22 | 92 | 76 |
| O=C(NO)c1ccc(Cn2nnc(-c3ccccn3)n2)cc1 [comp. 89, 4-[[5-(2-pyridyl)tetrazol-2-yl]methyl]benzenecarbohydroxamic acid] | 9 | 97 | 70 |
| O=C(NO)c1cc(F)c(Cn2nnc(-c3ccc4ccccc4n3)n2)c(F)c1 [comp. 95, 3,5-difluoro-4-[[5-(2-quinolyl)tetrazol-2-yl]methyl]benzenecarbohydroxamic acid] | 10 | 41 | 75 |
